Like-named read-outs stand apart in the source and are kept apart here.
Tests used:
[1] = molecular target: SL1 wt RNA; test: NMR-based KD estimation, ligand-detected 1D-1H titration; assay type: binding, SARS-CoV-2
[2] = system: SARS-CoV-2 SL1 RNA (SL1 wt); assay type: binding; conditions: for wLOGSY factor / T2 reduction [%] / CSP [Hz]: 10 μM SL1 wt, 200 μM ligand; for wLOGSY factor / T2 reduction [%]: pH 6.2; for T2 reduction [%]: CPMG 100 vs 5 ms; for Rank: FBS ranking from summed ranks of CSP, wLOGSY and T2 results; for CSP [Hz]: ligand 1H CSP, [RNA]:[ligand] 1:20, pH 6.2; for FBS binding to SL1, in words: ligand-detected NMR
[3] = system: SL1 Δbulge RNA; assay type: binding, SARS-CoV-2
[4] = system: SL1 Δbulge-Nanoluciferase mRNA; assay type: biochemical, SARS-CoV-2
[5] = system: SL1 RNA; test: RNA-detected NMR binding site mapping (2D-1H,1H-TOCSY and 1D-1H); parameters: species or system SARS-CoV-2; conditions: for 1H,1H CSPs [ppm] C16H5-H6 / 1H,1H CSPs [ppm] C19H5-H6 / 1H,1H CSPs [ppm] C20H5-H6 / 1H,1H CSPs [ppm] C21H5-H6 / 1H,1H CSPs [ppm] C28H5-H6 / 1H,1H CSPs [ppm] C33H5-H6 / 1H,1H CSPs [ppm] C34H5-H6 / 1H,1H CSPs [ppm] U9H5-H6 / 1H,1H CSPs [ppm] U10H5-H6 / 1H,1H CSPs [ppm] U11H5-H6 / 1H,1H CSPs [ppm] U13H5-H6 / 1H,1H CSPs [ppm] U17H5-H6 / 1H,1H CSPs [ppm] U18H5-H6 / 1H,1H CSPs [ppm] U25H5-H6 / 1H,1H CSPs [ppm] C15H5-H6 / 1H,1H CSPs [ppm] C32H5-H6: 2D TOCSY, RNA 150 μM, compound 1 mM, 298 K; for 1H CSPs [ppm] A12H2 / 1H CSPs [ppm] A29H2: RNA-detected 1D-1H
[6] = system: β-Globin-Nanoluciferase mRNA; test: Cell-free translation assay in rabbit reticulocyte lysate, Nanoluciferase readout; assay type: biochemical; conditions: 0.2 μM mRNA, 2 μM compound
[7] = system: SL1 (wt)-Nanoluciferase mRNA; assay type: biochemical, SARS-CoV-2
[8] = pH 6.2
[9] = Suppl. Table 7, ligand constant at 100, SL1 wt RNA concentration 0-250, read-out: KDest
[10] = ligand 100 μM, SL1 RNA 0 to 200 or 250 μM, 298 K, 600 MHz, pH 6.2, read-out: KD est
[11] = Suppl. Table 7, ligand constant at 100, SL1 wt RNA concentration 0-200, read-out: KDest

SMILES	wLOGSY factor [2]	T2 reduction [%] [2] [%]	Rank ([2]; SL1 wt)	CSP [Hz] [2] [Hz]	1H,1H CSPs [ppm] C16H5-H6 [5] [ppm]	1H,1H CSPs [ppm] C19H5-H6 [5] [ppm]	1H,1H CSPs [ppm] C20H5-H6 [5] [ppm]	1H,1H CSPs [ppm] C21H5-H6 [5] [ppm]	1H,1H CSPs [ppm] C28H5-H6 [5] [ppm]	1H,1H CSPs [ppm] C33H5-H6 [5] [ppm]	1H,1H CSPs [ppm] C34H5-H6 [5] [ppm]	1H,1H CSPs [ppm] U9H5-H6 [5] [ppm]	1H,1H CSPs [ppm] U10H5-H6 [5] [ppm]	1H,1H CSPs [ppm] U11H5-H6 [5] [ppm]	1H,1H CSPs [ppm] U13H5-H6 [5] [ppm]	1H,1H CSPs [ppm] U17H5-H6 [5] [ppm]	1H,1H CSPs [ppm] U18H5-H6 [5] [ppm]	1H,1H CSPs [ppm] U25H5-H6 [5] [ppm]	FBS result (CSP, wLOGSY, T2 reduction) in words [3]	Kd [1, 11] [µM]	other results
CNC(=N)Nc1nc2ccc(OC)cc2s1 [A.4]	1.21	77.83	20	16.14	0.0103	0.0293	0.0526	0.0441	0.1355	0.0050	0.0072	0.0130	0.0146	0.0030	0.0999	0.0288	0.0191	0.0099	–	–	Kd [1, 9]: 102 µM; Kd [1, 10]: 102 ± 8 µM; FBS binding to SL1, in words ([2]; SL1 wt): strongest FBS effects; CSP [Hz] [3]: 8.19 Hz; Rank [3]: 1; T2 reduction [%] [3]: 90.18%; wLOGSY factor [3]: 0.69; effect on translation of SL1 Δbulge mRNA, in words [4]: inhibitory effect; binding site / selectivity for the bulge from CSP and LB mapping, in words [5]: bound the bulge less selectively; 1H CSPs [ppm] A12H2 [5]: 0.1560 ppm; 1H CSPs [ppm] A29H2 [5]: 0.0670 ppm; effect on translation of β-globin mRNA, in words [6]: boost; effect on translation of SL1 wt mRNA, in words [7]: inhibitory effect
CNC(=O)Nc1nc2c(OC)cc(OC)cc2s1 [A.11]	1.51	93.00	19	4.50	0.0020	0.0036	0.0045	0.0061	0.0130	0.0010	0.0025	0.0040	0.0072	0.0311	0.0216	0.0010	0.0043	0.0045	no effects	–	1H,1H CSPs [ppm] C15H5-H6 [5]: 0.0010 ppm; 1H,1H CSPs [ppm] C32H5-H6 [5]: 0.0063 ppm; 1H CSPs [ppm] A12H2 [5]: 0.0400 ppm; 1H CSPs [ppm] A29H2 [5]: 0.0040 ppm; effect on translation of SL1 wt mRNA, in words [7]: no inhibition
CN(C)CC(=O)Nc1nc2ccc([N+](=O)[O-])cc2s1 [A.14]	0.46	100.00	9	22.20	–	–	–	–	–	–	–	–	–	–	–	–	–	–	no effects	–	CSP values relative to A.2 ([2]; ligand CSP, SL1 wt): 2–3 times; solubility, in words [8]: poor solubility
COc1ccc(-c2nnc(NC(=O)CN(C)C)s2)cc1OC [A.31]	1.71	100.00	1	24.42	0.0073	0.0042	0.0021	0.0010	0.0228	0.0067	0.0204	0.0104	0.0112	0.0256	0.0206	0.0067	0.0021	0.0122	no effects	146	Kd [1, 10]: 146 ± 13 µM; binding site / selectivity for the bulge from CSP and LB mapping, in words [5]: weaker binding characteristics; 1H,1H CSPs [ppm] C15H5-H6 [5]: 0.0032 ppm; 1H,1H CSPs [ppm] C32H5-H6 [5]: 0.0130 ppm; 1H CSPs [ppm] A12H2 [5]: 0.0630 ppm; 1H CSPs [ppm] A29H2 [5]: 0.0000 ppm; effect on translation of SL1 wt mRNA, in words [7]: nonspecific effects
COc1ccc2nc(NC(=O)CN3CCC[C@H](N)C3)sc2c1 [A.36]	0.82	100.00	2	30.18	0.0076	0.0036	0.0029	0.0010	0.0359	0.0057	0.0079	0.0100	0.0089	0.0063	0.0308	0.0045	0.0039	0.0120	no effects	218	Kd [1, 10]: 218 ± 90 µM; FBS binding to SL1, in words ([2]; SL1 wt): positive effect on SL1 binding; effect on translation of SL1 Δbulge mRNA, in words [4]: increased translation efficiency; binding site / selectivity for the bulge from CSP and LB mapping, in words [5]: weaker binding characteristics; 1H,1H CSPs [ppm] C15H5-H6 [5]: 0.0010 ppm; 1H,1H CSPs [ppm] C32H5-H6 [5]: 0.0186 ppm; 1H CSPs [ppm] A12H2 [5]: 0.0727 ppm; effect on translation of β-globin mRNA, in words [6]: increased translation efficiency; effect on translation of SL1 wt mRNA, in words [7]: nonspecific effects
COc1cc(OC)c2nc(NC(=O)CN3CCN(C)CC3)sc2c1 [A.56]	0.00	100.00	7	31.95	–	–	–	–	–	–	–	–	–	–	–	–	–	–	no effects	75.3	–
COc1cc(OC)c2nc(NC(=O)CN3CCNCC3)sc2c1 [A.57]	0.00	100.00	6	32.79	–	–	–	–	–	–	–	–	–	–	–	–	–	–	–	83.7	CSP [Hz] [3]: 4.92 Hz; Rank [3]: 8; T2 reduction [%] [3]: 47.32%; wLOGSY factor [3]: 1.07
COc1ccc(-c2nnc(NC(=O)CN3CCC[C@H](N)C3)s2)cc1OC [A.58]	0.00	96.61	10	39.18	–	–	–	–	–	–	–	–	–	–	–	–	–	–	–	77.5	scoring in the FBS ranking compared with lead A ([2]; SL1 wt): ~4 fold; CSP [Hz] [3]: 9.24 Hz; Rank [3]: 2; T2 reduction [%] [3]: 73.56%; wLOGSY factor [3]: 0.00
COc1ccc(-c2nnc(NC(=O)CN3CCC[C@@H](N)C3)s2)cc1OC [A.59]	0.00	98.00	10	38.70	–	–	–	–	–	–	–	–	–	–	–	–	–	–	–	90.7	scoring in the FBS ranking compared with lead A ([2]; SL1 wt): ~4 fold; CSP [Hz] [3]: 9.18 Hz; Rank [3]: 4; T2 reduction [%] [3]: 65.47%; wLOGSY factor [3]: 0.00
CNC(=O)Nc1nc2ccc(OC)cc2s1 [A]	0.78	66.95	37	3.96	0.0050	0.0050	0.0050	0.0095	0.0502	0.0042	0.0054	0.0117	0.0179	0.0824	0.0242	0.0100	0.0010	0.0160	no effects	–	Kd [1, 9]: 136 µM; Kd [1, 10]: 136 ± 34 µM; Normalized FBS score ([2]; SL1 wt): 1.00; 1 - normalized FBS score ([2]; SL1 wt, 0 lowest, 1 highest score): 0.00; FBS score ([2]; SL1 wt, radar chart values): 37; solubility, in words [8]: solubility issues; CSP [Hz] [3]: 0.00 Hz; Normalized abs. CSP SL1 wt - CSP SL1 Δbulge (normalized selectivity score) [3]: 0.59; abs. CSP SL1 wt - CSP SL1 Δbulge [3]: 3.96; effect on translation of SL1 Δbulge mRNA, in words [4]: increased translation efficiency; binding site / selectivity for the bulge from CSP and LB mapping, in words [5]: binds selectively to the bulge; 1H,1H CSPs [ppm] C15H5-H6 [5]: 0.0081 ppm; 1H,1H CSPs [ppm] C32H5-H6 [5]: 0.0124 ppm; 1H CSPs [ppm] A12H2 [5]: 0.0041 ppm; effect on translation of β-globin mRNA, in words [6]: increased translation efficiency; Normalized inhibition rate (normalized activity score) [7]: -0.03; SL1 wt inhibition rate [%] [7]: -1.66%; time-resolved SL1-driven translation, in words [7]: more subtle temporal effects
CC(=O)c1ccc(NC(=O)CN2CCCC2)cc1 [B]	–	–	–	–	0.0120	0.0092	0.0030	0.0058	0.0263	0.0110	0.0021	0.0063	0.0122	0.0220	0.0256	0.0061	0.0064	0.0085	–	–	Kd [1, 9]: 150 µM; Kd [1, 10]: 150 ± 46 µM; solubility, in words [8]: precipitation; 1H,1H CSPs [ppm] C15H5-H6 [5]: 0.0208 ppm; 1H,1H CSPs [ppm] C32H5-H6 [5]: 0.0336 ppm

— paper PMC12356538, “Targeting the SARS-CoV‑2 RNA Translation Initiation Element SL1 by Molecules of Low Molecular Weight” (Journal of the American Chemical Society, 2025)
